Experimental data taken from patent US10730863B2, “Bridged bicyclic compounds as farnesoid X receptor modulators” (BRISTOL-MYERS SQUIBB COMPANY, priority 2017, dated 2020).

Target: FXR (Homo sapiens (Human), UniProt Q96RI1)
Experiment: FXR EC50 (FXR agonist activity reported with each example)
Assay type: cell-based

FXR, sequence (Q96RI1 262-486): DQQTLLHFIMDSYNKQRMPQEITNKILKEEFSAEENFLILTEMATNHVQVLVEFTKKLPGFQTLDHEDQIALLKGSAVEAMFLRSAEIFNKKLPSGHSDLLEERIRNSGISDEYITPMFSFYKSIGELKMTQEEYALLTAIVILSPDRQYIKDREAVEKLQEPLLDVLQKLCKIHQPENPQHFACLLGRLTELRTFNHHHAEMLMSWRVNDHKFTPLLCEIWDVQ

Structure (SMILES): O=C(O)c1ccc(OCC23CCC(OCc4c(-c5c(Cl)cccc5Cl)noc4C4CC4)(CC2)CC3)cc1 [Example 99, 4-((4-((5-cyclopropyl-3-(2,6-dichlorophenyl)isoxazol-4-yl)methoxy)bicyclo[2.2.2]octan-1-yl)methoxy) benzoic acid]
- EC50: 140 nM

Structure (SMILES): CC(C)Oc1nc(C(=O)O)cc2ccc(OCC34CCC(OCc5c(-c6c(Cl)cncc6Cl)noc5C5CC5)(CC3)CC4)cc12 [Example 357, 7-((4-((5-cyclopropyl-3-(3,5-dichloropyridin-4-yl)isoxazol-4-yl)methoxy)bicyclo[2.2.2]octan-1-yl)methoxy)-1-isopropoxyisoquinoline-3-carboxylic acid]
- EC50: 13 nM

Structure (SMILES): O=C(O)c1ccc(OC2CCOCC2)c2nc(C34CCC(OCc5c(-c6c(Cl)cncc6Cl)noc5C5CC5)(CC3)CC4)ccc12 [Example 414]
- EC50: 29 nM

Structure (SMILES): COc1cc(OCC23CCC(OCc4c(-c5c(Cl)cncc5Cl)noc4C4CC4)(CC2)CC3)cc(C(=O)O)c1 [Example 321, 3-((4-((5-cyclopropyl-3-(3,5-dichloropyridin-4-yl)isoxazol-4-yl)methoxy)bicyclo[2.2.2]octan-1-yl)methoxy)-5-methoxybenzoic acid]
- EC50: 7 nM

Structure (SMILES): O=C(O)c1ccc(F)c(C(O)C23CCC(OCc4c(-c5c(Cl)cccc5Cl)noc4C4CC4)(CC2)CC3)c1 (stereo not drawn) [Example 121, 3-((4-((5-cyclopropyl-3-(2,6-dichlorophenyl)isoxazol-4-yl)methoxy)bicyclo[2.2.2]octan-1-yl)(hydroxy)methyl)-4-fluorobenzoic acid]
- EC50: 1500 nM

Structure (SMILES): O=C(O)c1cc(F)cc(OCC23CCC(OCc4c(-c5c(Cl)cccc5Cl)noc4C4CC4)(CC2)CC3)c1 [Example 94, 3-((4-((5-cyclopropyl-3-(2,6-dichlorophenyl)isoxazol-4-yl)methoxy)bicyclo[2.2.2]octan-1-yl)methoxy)-5-fluorobenzoic acid]
- EC50: 18 nM

Structure (SMILES): O=C(O)c1cccc(-c2noc(C34CCC(OCc5c(-c6ccccc6C(F)(F)F)noc5C5CC5)(CC3)CC4)n2)n1 [Example 48]
- EC50: 2100 nM

Structure (SMILES): O=C(O)c1ccc(-c2noc(C34CCC(OCc5c(-c6c(Cl)cccc6Cl)noc5C5CC5)(CC3)CO4)n2)cc1 [Example 196]
- EC50: 83 nM

Structure (SMILES): O=C(O)c1cc(OC(CO)CCl)c2cc(OCC34CCC(OCc5c(-c6c(Cl)cncc6Cl)noc5C5CC5)(CC3)CC4)ccc2n1 (stereo not drawn) [Example 354, 4-((1-chloro-3-hydroxypropan-2-yl)oxy)-6-((4-((5-cyclopropyl-3-(3,5-dichloropyridin-4-yl)isoxazol-4-yl)methoxy)bicyclo[2.2.2]octan-1-yl)methoxy)quinoline-2-carboxylic acid]
- EC50: 200 nM

Structure (SMILES): CC(C)(C(=O)O)c1ccc(C23CCC(/C=C/c4c(-c5ccccc5C(F)(F)F)noc4C4CC4)(CC2)CO3)cc1 [Example 477, (E)-2-(4-(4-(2-(5-cyclopropyl-3-(2-(trifluoromethyl)phenyl)isoxazol-4-yl)vinyl)-2-oxabicyclo[2.2.2]octan-1-yl)phenyl)-2-methylpropanoic acid]
- EC50: 1500 nM

Structure (SMILES): COc1ccc(-c2noc(C34CCC(OCc5c(-c6c(Cl)cncc6Cl)noc5C5CC5)(CC3)CO4)n2)cc1C(=O)O [Example 455, 5-(5-(4-((5-cyclopropyl-3-(3,5-dichloropyridin-4-yl)isoxazol-4-yl)methoxy)-2-oxabicyclo[2.2.2]octan-1-yl)-1,2,4-oxadiazol-3-yl)-2-methoxybenzoic acid]
- EC50: 290 nM

Structure (SMILES): NC(=O)c1cc(F)c2nc(C(O)C34CCC(OCc5c(-c6c(Cl)cccc6Cl)noc5C5CC5)(CC3)CC4)sc2c1 (stereo not drawn) [Example 123, 2-((4-((5-cyclopropyl-3-(2,6-dichlorophenyl)isoxazol-4-yl)methoxy)bicyclo[2.2.2]octan-1-yl)(hydroxy)methyl)-4-fluorobenzo[d]thiazole-6-carboxamide]
- EC50: 280 nM

Structure (SMILES): O=C(O)c1cccc2nc(C34CCC(/C=C/c5c(-c6c(Cl)cncc6Cl)noc5C5CC5)(CC3)CC4)sc12 [Example 503, (E)-2-(4-(2-(5-cyclopropyl-3-(3,5-dichloropyridin-4-yl)isoxazol-4-yl)vinyl)bicyclo[2.2.2]octan-1-yl)benzo[d]thiazole-7-carboxylic acid]
- EC50: 31 nM

Structure (SMILES): O=C(O)c1cccc(C#CC23CCC(OCc4c(-c5c(Cl)cccc5Cl)noc4C4CC4)(CC2)CC3)c1 [Example 130, 3-((4-((5-cyclopropyl-3-(2,6-dichlorophenyl)isoxazol-4-yl)methoxy)bicyclo[2.2.2]octan-1-yl)ethynyl)benzoic acid]
- EC50: 68 nM

Structure (SMILES): CCOc1cc(C(=O)O)nc2ccc(OCC34CCC(OCc5c(-c6c(Cl)cncc6Cl)noc5C5CC5)(CC3)CC4)cc12 [Example 345]
- EC50: 14 nM

Structure (SMILES): O=C(O)c1cc(F)c2nc(C34CCC(OCc5c(-c6ccccc6C(F)(F)F)noc5C5CC5)(CC3)CC4)sc2c1 [Example 51]
- EC50: 500 nM

Structure (SMILES): COC(=O)c1ccc(NC(=S)C23CCC(COCc4c(-c5c(Cl)cccc5Cl)noc4C4CC4)(CC2)CC3)c(Cl)c1 [Intermediate 168A, methyl 3-chloro-4-(4-(((5-cyclopropyl-3-(2,6-dichlorophenyl)isoxazol-4-yl)methoxy)methyl)bicyclo[2.2.2]octane-1-carbothioamido)benzoate]
- EC50: 4380 nM

Structure (SMILES): O=C(O)c1cnn(CC23CCC(OCc4c(-c5c(Cl)cccc5Cl)noc4C4CC4)(CC2)CC3)c1C(F)F [Example 269, 1-((4-((5-cyclopropyl-3-(2,6-dichlorophenyl)isoxazol-4-yl)methoxy)bicyclo[2.2.2]octan-1-yl)methyl)-5-(difluoromethyl)-1H-pyrazole-4-carboxylic acid]
- EC50: 700 nM

Structure (SMILES): O=C(O)c1cccc(-c2noc(C34CCC(OCc5c(-c6ccccc6OC(F)(F)F)noc5C5CC5)(CC3)CO4)n2)c1 [Example 199]
- EC50: 220 nM

Structure (SMILES): O=C(O)c1cccc(-c2noc(C34CCC(/C=C/c5c(-c6c(Cl)cncc6Cl)noc5C5CC5)(CC3)CO4)n2)c1 [Example 467, (E)-3-(5-(4-(2-(5-cyclopropyl-3-(3,5-dichloropyridin-4-yl)isoxazol-4-yl)vinyl)-2-oxabicyclo[2.2.2]octan-1-yl)-1,2,4-oxadiazol-3-yl)benzoic acid]
- EC50: 260 nM

Structure (SMILES): O=C(O)c1cc(C(F)(F)F)cc(C23CCC(COCc4c(-c5c(Cl)cncc5Cl)noc4C4CC4)(CC2)CO3)c1 [Example 490, 3-(4-(((5-cyclopropyl-3-(3,5-dichloropyridin-4-yl)isoxazol-4-yl)methoxy)methyl)-2-oxabicyclo[2.2.2]octan-1-yl)-5-(trifluoromethyl)benzoic acid]
- EC50: 96 nM

Structure (SMILES): O=C(O)c1cnn(CC23CCC(OCc4c(-c5c(Cl)cccc5Cl)noc4C4CC4)(CC2)CC3)c1 [Example 76, 1-((4-((5-cyclopropyl-3-(2,6-dichlorophenyl)isoxazol-4-yl)methoxy)bicyclo[2.2.2]octan-1-yl)methyl)-1H-pyrazole-4-carboxylic acid]
- EC50: 290 nM

Structure (SMILES): O=C(O)c1ccc(-c2noc(C34CCC(OCc5c(-c6ccccc6OC(F)(F)F)noc5C5CC5)(CC3)CO4)n2)cc1 [Example 212]
- EC50: 1000 nM

Structure (SMILES): COC(=O)c1ccc(-c2noc(C34CCC(COCc5c(-c6ccccc6OC(F)(F)F)noc5C5CC5)(CC3)CC4)n2)cc1 [Example 155]
- EC50: 2500 nM
